Paper PMC4419590 (ChemMedChem, 2014)

What was measured:
[1] = tested on: HIV-1MDR/B(X4); experiment: microbe, parasite or virus in culture; type: cell-based; conditions: for fold change of EC50 compared to wild-type HIV-1ERS104pre: number in parentheses
[2] = tested on: HIV-1MDR/C(X4); experiment: microbe, parasite or virus in culture; type: cell-based; conditions: for fold change of EC50 compared to wild-type HIV-1ERS104pre: number in parentheses
[3] = tested on: HIV-1MDR/G(X4); experiment: microbe, parasite or virus in culture; type: cell-based; conditions: for fold change of EC50 compared to wild-type HIV-1ERS104pre: number in parentheses
[4] = tested on: HIV-1MDR/TM(X4); experiment: microbe, parasite or virus in culture; type: cell-based; conditions: for fold change of EC50 compared to wild-type HIV-1ERS104pre: number in parentheses
[5] = tested on: HIV-1MDR/MM(R5); experiment: microbe, parasite or virus in culture; type: cell-based; conditions: for fold change of EC50 compared to wild-type HIV-1ERS104pre: number in parentheses
[6] = tested on: HIV-1MDR/JSL(R5); experiment: microbe, parasite or virus in culture; type: cell-based; conditions: for fold change of EC50 compared to wild-type HIV-1ERS104pre: number in parentheses
[7] = tested on: panel of six multidrug resistant clinical HIV-1 variants; experiment: microbe, parasite or virus in culture; type: cell-based; conditions: Human immunodeficiency virus 1, read-out: EC50 range across the panel
[8] = tested on: HIV-1LAI; experiment: Antiviral activity in MT-2 cells exposed to HIV-1LAI, MTT assay; type: cell-based
[9] = tested on: HIV-1ERS104pre (wild-type X4); experiment: Antiviral activity in PHA-PBMs, p24 Gag production, wild-type clinical isolate; type: cell-based
[10] = In vitro blood-brain-barrier model, triple co-culture drug transport assay; conditions: rat, monkey
[11] = tested on: MT-2 human T-lymphoid cells
[12] = tested on: in vitro BBB model (rat astrocytes, pericytes and monkey endothelial cells)
[13] = Human immunodeficiency virus 1, T-lymphoid, in Homo sapiens
[14] = PHA-PBMs, p24 Gag production, mean ± 1 SD

| Compound | fold change of EC50 compared to wild-type HIV-1ERS104pre [1] | EC50 ([2]; Human immunodeficiency virus 1) [nM] | fold change of EC50 compared to wild-type HIV-1ERS104pre [2] | EC50 ([3]; Human immunodeficiency virus 1) [nM] | fold change of EC50 compared to wild-type HIV-1ERS104pre [3] | fold change of EC50 compared to wild-type HIV-1ERS104pre [4] | EC50 ([5]; Human immunodeficiency virus 1) [nM] | fold change of EC50 compared to wild-type HIV-1ERS104pre [5] | EC50 ([6]; Human immunodeficiency virus 1) [nM] | fold change of EC50 compared to wild-type HIV-1ERS104pre [6] | EC50 [8, 13] [nM] | EC50 [9, 14] [nM] | EC50 [1, 14] [nM] | EC50 [2, 14] [nM] | EC50 [3, 14] [nM] | EC50 [4, 14] [nM] | EC50 [5, 14] [nM] | CC50 [11] [nM] | Papp (apparent permeability coefficient) [12] | further results |
| --- | --- | --- | --- | --- | --- | --- | --- | --- | --- | --- | --- | --- | --- | --- | --- | --- | --- | --- | --- | --- |
| CC(C)CN(C[C@@H](O)[C@H](Cc1ccccc1)NC(=O)O[C@H]1CCOC1)S(=O)(=O)c1ccc(N)cc1 [APV, amprenavir, reference compound] | 15 | 210 ± 20 | 7 | 310 ± 80 | 11 | 12 | 630 ± 9 | 22 | 270 ± 10 | 9 |  |  |  |  |  |  |  |  |  | EC50 ([1]; Human immunodeficiency virus 1): 490 ± 50 nM; EC50 [7]: 210 to 630 nM |
| CC(C)CN(C[C@@H](O)[C@H](Cc1ccccc1)NC(=O)O[C@H]1CO[C@H]2OCC[C@H]21)S(=O)(=O)c1ccc(N)cc1 [Darunavir, darunavir, reference compound] |  | 5 ± 1 |  | 14 ± 9 |  |  | 25 ± 2 |  | 10 ± 1 |  | 5 |  |  |  |  |  |  |  |  | EC50 ([9]; Human immunodeficiency virus 1): 4 ± 1 nM; EC50 ([4]; Human immunodeficiency virus 1): 30 ± 10 nM; Papp at 30 min, 100 μM [10]: 9.32 ± 2.25 ×10⁻⁶ cm/s |
| COc1ccc(S(=O)(=O)N(CC(C)C)C[C@@H](O)[C@H](Cc2ccccc2)NC(=O)OC2CO[C@H]3OCC(F)(F)[C@@H]23)cc1 (stereo partly drawn) [Inhibitor 3] | 7 |  | 1 |  | 2 | 2 |  | 10 |  | 1 |  | 2.3 ± 0.1 | 14 ± 1 | 2 ± 1 | 4 ± 1 | 4 ± 1 | 21 ± 4 | 17500 | 50.38 ± 10.61 10^−6 cm/s | EC50 [6, 14]: 2 ± 1 nM |
| CC(C)CN(C[C@@H](O)[C@H](Cc1ccccc1)NC(=O)O[C@H]1CO[C@H]2OCC(F)(F)[C@H]21)S(=O)(=O)c1ccc(N)cc1 [Inhibitor 4] | 3 |  | 1 |  | 1 | 2 |  | 7 |  | 1 |  | 2.7 ± 0.3 | 11 ± 1 | 2 ± 1 | 4 ± 1 | 4 ± 1 | 20 ± 0.2 | 37000 | 60.84 ± 3.97 10^−6 cm/s | EC50 ([8]; MT-2 human T-lymphoid cells exposed to HIVLAI): 3 nM |
| CC(C)(C)NC(=O)[C@@H]1C[C@@H]2CCCC[C@@H]2CN1C[C@@H](O)[C@H](Cc1ccccc1)NC(=O)[C@H](CC(N)=O)NC(=O)c1ccc2ccccc2n1 [saquinavir] |  |  |  |  |  |  |  |  |  |  | 21 |  |  |  |  |  |  |  |  |  |
